According to patent US6586631B1, “Acetoacetarylamides” (Lonza, Ltd., priority 1998, dated 2003):

Assay: Time to dissolve in 0.5 M aqueous sodium hydroxide solution at 20° C.
Type: physicochemical
Procedure: The novel acetoacetarylamides dissolve in a 0.5 N sodium hydroxide solution at 20° C. in from approximately half to one third of the time required by a dried acetoacetarylide prepared according to the prior art.
Water was introduced into a 1.5 l bench stirrer and adjusted to a temperature of 20° C. The stirrer was then rendered inert using nitrogen. Using two pumps, 133 g of aniline and 124 g of diketene were metered in over the course of 10 minutes. The addition of aniline was delayed by about 30 sec. At the end of the metered addition, the reaction temperature increased to 65° to 70° C. The mixture was then allowed to react for a further 30 minutes, and the reaction temperature dropped to 60° C. Vacuum cooling (450 to 120 mbar) was used to cool the mixture to 40° C., and the liquid acetoacetanilide began to crystallize, as a result of which the temperature immediately rose to about 58° C. The mixture was then cooled to 15° C. At 15° C., the solid product was centrifuged off, washed with 50 ml of water and dried at 50° C. under reduced pressure for 12 h. This method gave acetoacetanilide having a content of >99.5 percent (with a residual moisture content of <0.1 percent). The yield in terms of aniline was 97.1 percent, and in terms of diketene was 92.0 percent. A crystalline product having an average particle size of 450 to 500 μm was obtained. 50 g of the resulting acetoacetanilide (dry, 99.5 percent, water content <0.1 percent) dissolved completely at 20° C. in 500 ml of a 0.5 M aqueous sodium hydroxide solution in 25 minutes.
This gave white flakes having an average thickness of 0.08 mm and an average diameter of from 0.5 mm to […]. 55.6 g of the resulting acetoacetanilide (moist, content of acetoacetanilide 89.5 percent, water content 10 percent) dissolved completely at 20° C. in 500 ml of a 0.5 M aqueous sodium hydroxide solution in about 15 minutes.

[1] = 55.6 g (moist, content 89.5 percent, water content 10 percent) in 500 ml of 0.5 M aqueous sodium hydroxide solution
[2] = 60 g moist pastilles in 500 ml of 0.5 M aqueous sodium hydroxide solution
[3] = 60 g moist pastilles in 700 ml of 0.5 M aqueous sodium hydroxide solution

## CC(=O)CC(=O)Nc1ccccc1 [Example 1, Acetoacetanilide, reference compound]
50 g (dry, 99.5 percent, water content <0.1 percent) in 500 ml of 0.5 M aqueous sodium hydroxide solution
  time to dissolve completely: 25 min

## CC(=O)CC(=O)Nc1ccccc1 [Example 4, Acetoacetanilide]
[1]
  time to dissolve completely: about 15 minutes

## CC(=O)CC(=O)Nc1ccccc1 [Example 5, Acetoacetanilide]
[1]
  time to dissolve completely: about 17 minutes

## CC(=O)CC(=O)Nc1ccccc1 [Example 6, Acetoacetanilide]
[1]
  time to dissolve completely: about 17 minutes

## COc1ccccc1NC(=O)CC(C)=O [Example 7, o-acetoacetanisidide]
[2]
  time to dissolve: about 20 minutes

## CC(=O)CC(=O)Nc1ccccc1C [Example 8, o-acetoacetotoluidide]
[3]
  time to dissolve: about 19 minutes

## CC(=O)CC(=O)Nc1ccc(C)cc1C [Example 9, m-acetoacetoxylidide]
[3]
  time to dissolve: about 18 minutes

## CC(=O)CC(=O)Nc1ccccc1Cl [Example 10, o-Acetoacetochloroanilide]
[2]
  time to dissolve: about 18 minutes
